Nine molecules from US20100022491A1, “4-HYDROXY-2-OXO-2,3-DIHYDRO-1,3-BENZOTHIAZOL-7YL COMPOUNDS FOR MODULATION OF B2-ADRENORECEPTOR ACTIVITY” (ASTRAZENECA AB, priority 2006, published 2010) can be followed below.

Counter-ions that a name gives are not always drawn.

One assay concerns the target T1, Adrenergic β2 (Homo sapiens, UniProt P07550).
T1 construct: Adherent H292 cells were removed from tissue culture flasks; endogenous in cells; host or cells: H292 cells
The assay is described as follows: Adrenergic β2 mediated cAMP production in H292 cells. Type of assay: cell-based. Conditions: for EC50: H292 cells, cAMP by AlphaScreen, 60 minutes at room temperature, rolipram 300 μM, read-out: β2 pEC50 (converted); for β2 Int Act: Intrinsic Activity as a fraction relative to the maximum activity determined for formoterol. An outline of the steps:
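cAMP accumulation in adherent H292 cells, measured by AlphaScreen and calibrated with cAMP standards. Compounds incubated 60 min at room temperature after 10 min rolipram (final 300 μM; vehicle 1.6% DMSO). pEC50 and intrinsic activity, as a fraction of formoterol's maximum, from four-parameter logistic fit.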
(In general: Changes in cAMP serve as a functional read-out for many G protein-coupled receptors.)

In assay [1] the target is T2, recombinant human Dopamine Subtype D2s receptors (Homo sapiens, UniProt P14416).
T2 construct: purchased Perkin Elmer
Description: Dopamine D2 selectivity binding assay ([3H]-spiperone). As to conditions: inhibition of [3H]-spiperone (0.16 nM) binding; read-out: D2 bind pIC50 (converted). A digest of the protocol:
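Displacement of [3H]-spiperone (0.16 nM final) from human D2s receptor membranes in pH 7.4 HEPES buffer over 2 h at room temperature, then filtration and scintillation counting. Specific binding taken as vehicle minus 10 μM haloperidol wells. Potency given as pIC50 from a four-parameter logistic curve.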

T2 sequence (P14416 1-414 isoform P14416-2): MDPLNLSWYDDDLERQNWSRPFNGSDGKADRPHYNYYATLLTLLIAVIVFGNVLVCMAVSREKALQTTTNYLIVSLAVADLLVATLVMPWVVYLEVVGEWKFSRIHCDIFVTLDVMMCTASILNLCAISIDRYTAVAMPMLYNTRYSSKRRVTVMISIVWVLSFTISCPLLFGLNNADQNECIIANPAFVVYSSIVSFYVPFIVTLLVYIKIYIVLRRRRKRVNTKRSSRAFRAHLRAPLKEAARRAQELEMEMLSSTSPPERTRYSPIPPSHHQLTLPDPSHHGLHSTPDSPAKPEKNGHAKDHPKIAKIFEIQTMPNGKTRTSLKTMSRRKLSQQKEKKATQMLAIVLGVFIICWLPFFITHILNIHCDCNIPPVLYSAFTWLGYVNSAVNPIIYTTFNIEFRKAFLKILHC
T1 sequence (P07550 whole entry): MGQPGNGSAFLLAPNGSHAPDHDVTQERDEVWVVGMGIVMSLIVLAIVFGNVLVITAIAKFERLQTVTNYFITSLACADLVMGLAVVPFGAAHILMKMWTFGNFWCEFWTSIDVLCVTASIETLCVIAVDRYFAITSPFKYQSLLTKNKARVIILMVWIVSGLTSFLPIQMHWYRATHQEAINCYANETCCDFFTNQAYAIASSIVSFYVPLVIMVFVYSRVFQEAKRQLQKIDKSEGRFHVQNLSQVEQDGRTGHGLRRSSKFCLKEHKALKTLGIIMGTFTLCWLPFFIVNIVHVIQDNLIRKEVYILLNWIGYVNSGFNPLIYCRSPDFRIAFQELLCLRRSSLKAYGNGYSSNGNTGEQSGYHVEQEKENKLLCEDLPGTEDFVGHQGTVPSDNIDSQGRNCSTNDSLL

In the case of `O=C(CCNCCc1ccccc1)N(CCNCCc1ccc(O)c2[nH]c(=O)sc12)C1CCC(F)(F)CC1` [Example 4, N-(4,4-Difluorocyclohexyl)-N-(2-{[2-(4-hydroxy-2-oxo-2,3-dihydro-1,3-benzothiazol-7-yl)ethyl]amino}ethyl)-N^3-(2-phenylethyl)-β-alaninamide bis-trifluoroacetic acid salt], on Adrenergic β2, the EC50 is 1 nM and the “β2 Int Act” value was found to be 0.79. Further, in assay [1], the IC50 was 2000 nM.
On the same counts, the results for `O=C(CCNCCc1ccccc1)N(CCNCCc1ccc(O)c2[nH]c(=O)sc12)C1CCCCC1` [Example 5, N-Cyclohexyl-N-(2-{[2-(4-hydroxy-2-oxo-2,3-dihydro-1,3-benzothiazol-7-yl)ethyl]amino}ethyl)-N^3-(2-phenylethyl)-β-alaninamide bis-trifluoroacetic acid salt] are 2.51 nM, 0.83 and 398 nM.
On the same counts, the results for `Cc1cccc(CCNCCC(=O)N(CCNCCc2ccc(O)c3[nH]c(=O)sc23)C2CCCCCC2)c1` [Example 85, N^1-Cycloheptyl-N^1-(2-{[2-(4-hydroxy-2-oxo-2,3-dihydro-1,3-benzothiazol-7-yl)ethyl]amino}ethyl)-N^3-[2-(3-methylphenyl)ethyl]-β-alaninamide bis-trifluoroacetic acid salt] are 6.31 nM, 0.65 and 79.4 nM.
In the same order, the values of `COc1ccc(CCNCCC(=O)N(CCNCCc2ccc(O)c3[nH]c(=O)sc23)C2CCCCCC2)cc1OC` [Example 86, N^1-Cycloheptyl-N^3-[2-(3,4-dimethoxyphenyl)ethyl]-N^1-(2-{[2-(4-hydroxy-2-oxo-2,3-dihydro-1,3-benzothiazol-7-yl)ethyl]amino}ethyl)-β-alaninamide bis-trifluoroacetic acid salt] are 39.8 nM, 0.43 and 200 nM.
Regarding `O=C(CCNCCc1ccc(O)c2[nH]c(=O)sc12)N(CCNCCc1ccc(O)c2[nH]c(=O)sc12)C1CCCCCC1` [Example 87, bis-trifluoroacetic acid salt], on Adrenergic β2, the EC50 is 3.16 nM and the “β2 Int Act” value was 0.72. Further, in assay [1], the IC50 is 39.8 nM.
Regarding `O=C(CCNCCc1ccc2c(c1)OCCO2)N(CCNCCc1ccc(O)c2[nH]c(=O)sc12)C1CCCCCC1` [Example 88, N-Cycloheptyl-N^3-[2-(2,3-dihydro-1,4-benzodioxin-6-yl)ethyl]-N^1-(2-{[2-(4-hydroxy-2-oxo-2,3-dihydro-1,3-benzothiazol-7-yl)ethyl]amino}ethyl)-β-alaninamide bis-trifluoroacetic acid salt], on Adrenergic β2, the EC50 was 25.1 nM and the “β2 Int Act” value is on record as 0.37. Moreover, in assay [1], the IC50 was 79.4 nM.
On to `O=C(CCNCCc1ccc(O)c(Cl)c1)N(CCNCCc1ccc(O)c2[nH]c(=O)sc12)C1CCCCC1` [Example 89, N^3-[2-(3-chloro-4-hydroxyphenyl)ethyl]-N^1-cyclohexyl-N^1-(2-{[2-(4-hydroxy-2-oxo-2,3-dihydro-1,3-benzothiazol-7-yl)ethyl]amino}ethyl)-β-alaninamide bis-trifluoroacetic acid salt], for which, at Adrenergic β2, the EC50 is 1.26 nM and the “β2 Int Act” value turned out to be 0.9. The IC50 in assay [1] is 79.4 nM.
On the same counts, the results for `O=C(CCNCCc1cccc(O)c1)N(CCNCCc1ccc(O)c2[nH]c(=O)sc12)C1CCCCCCC1` [Example 90, N^1-Cyclooctyl-N^1-(2-{[2-(4-hydroxy-2-oxo-2,3-dihydro-1,3-benzothiazol-7-yl)ethyl]amino}ethyl)-N^3-[2-(3-hydroxyphenyl)ethyl]-β-alaninamide bis-trifluoroacetic acid salt] are 3.98 nM, 0.71 and 79.4 nM.
On the same counts, the results for `CC1(C)CCC(N(CCNCCc2ccc(O)c3[nH]c(=O)sc23)C(=O)CCNCCc2cccc(O)c2)CC1` [Example 91, N^1-(4,4-Dimethylcyclohexyl)-N^1-(2-{[2-(4-hydroxy-2-oxo-2,3-dihydro-1,3-benzothiazol-7-yl)ethyl]amino}ethyl)-N^3-[2-(3-hydroxyphenyl)ethyl]-β-alaninamide bis-trifluoroacetic acid salt] are 3.98 nM, 0.75 and 39.8 nM.
